Assays:
Escherichia coli = system: Escherichia coli
Protocol: (§1) Bacterial isolates for these studies were obtained from the New York State Mastitis Control Program, a division of veterinary clinical services of the New York State College of Veterinary Medicine, Cornell University. Samples were from cows with clinical mastitis or from milk cows that were cultured for a routine herd survey. Mastitis pathogens were identified by the use of standard bacteriologic technique^(1).
(§2) Concentrations inhibiting growth by 50% were determined using broth dilution test procedures^(2). Briefly 0.1 ml of cultures containing approximately 9×10^6 organisms/ml were inoculated into 10 mls of Tryptose-soy broth^(3) containing either 0, 1, 10, 100, or 1000 ppm of zinc pyridine-2-thione-N-oxide. These tubes were incubated at 37° C. for 18 hours and optical densities were read at 550 nanometers. Blanks for each test level consisted of a Tryptose-soy broth tube with the same concentration of test material. Concentrations of test material inhibiting growth by 50% were computed by probit analysis^(4).

Staphylococcus aureus = settings: 37° C., 18 h, 5 isolates
Protocol: as §1, §2

Klebsiella pneumoniae = system: Klebsiella pneumoniae
Protocol: as §1, §2

[1] = system: microorganisms which cause bovine mastitis; settings: broth
Protocol: as §1, §2

Pseudomonas aeruginosa = settings: 37° C., 18 h, 2 isolates
Protocol: as §1, §2

Yeast Group = assay: Broth dilution growth inhibition (MIC), isolates from mastitic cows; type: cell-based; settings: 37° C., 18 h, 5 isolates
[2] = bovine, in vivo
S. aureus = assay: MIC in sterile, homogenized, skim milk; type: cell-based, Staphylococcus aureus; settings: 37° C., 4 h
Protocol: (§3) Cultures of E. coli and S. aureus were isolated from mammary glands of cows with mastitis. Cultures were streaked on blood agar plates and incubated for 24 hours at 37° C. Colonies from these plates were inoculated into nutrient broth tubes and incubated at 37° C. overnight. One-tenth milliliter aliquots of these cultures were inoculated into 10 milliliter tubes of sterile, homogenized, skim milk containing various concentrations of zinc pyridine-2-thione-N-oxide. The concentrations of this active compound ranged from 0.01 ppm to 100 ppm and were made by serially diluting a 1% by weight aqueous suspension of zinc pyridine-2-thione-N-oxide in 10 milliliter portions of sterile skim milk.
(§4) The milk tubes containing bacteria and zinc pyridine-2-thione-N-oxide were incubated in a shaking water bath at 37° C. for 4 hours; at the end of the incubation period, 0.1 ml of the milk incubate was added to 2 ml of soft agar (0.75% by weight agar and the rest being water) and plated on blood agar plates. These plates were incubated at 37° C. for 18 hours and the microorganisms present on each plate were counted with an NBS Automatic Colony Counter.

E. coli = assay: MIC in sterile, homogenized, skim milk; type: cell-based, Escherichia coli; settings: 37° C., 4 h
Protocol: as §3, §4

rats = settings: cited from earlier work
[3] = system: udder of healthy, lactating cow; settings: bovine, in vivo
[4] = system: udder of normal, lactating cows; settings: bovine, in vivo
[5] = Tryptose-soy broth, 37° C., 18 h, 5 isolates
[6] = Tryptose-soy broth, 37° C., 18 h, 3 isolates

[Na+].[O-][n+]1ccccc1[S-] [sodium pyridine-2-thione-N-oxide, 2-pyridinethiol-1-oxide, Na salt]
50% by Weight Growth Inhibited (Escherichia coli; Table 1A, broth, 37° C., 18 h, 5 isolates): 3.4 ± 0.8 | 50% by Weight Growth Inhibited (Staphylococcus aureus; Table 1A, broth): < 1.0 | 50% by Weight Growth Inhibited (Klebsiella pneumoniae; Table 1A, broth, 37° C., 18 h, 3 isolates): 5.2 ± 0.8 | effectiveness against microorganisms which cause bovine mastitis [1]: effective | 50% by Weight Growth Inhibited (Pseudomonas aeruginosa; Table 1A, broth): 38.0 ± 5.2 | 50% by Weight Growth Inhibited (Yeast Group; Table 1A, broth): < 1.0

[O-]n1ccccc1=S.[O-]n1ccccc1=S.[Zn+2] [zinc pyridine-2-thione-N-oxide, bis[1-hydroxy-2(1H)pyridinethionato]zinc]
disappearance from the milk [2]: relative quick disappearance from the milk | residual amounts in milk expected at lower infused amounts [2]: may be expected to be lower | residual content in milk, summary [2]: very low levels | 50% by Weight Growth Inhibited (concentration inhibiting growth by 50%) (Escherichia coli; [5]): 2.5 ± 0.5 ppm | 100% by Weight Growth Inhibited (MIC) (Escherichia coli; [5]): 13-20 ppm | effectiveness against E. coli (Escherichia coli; broth): especially effective | 50% by Weight Growth Inhibited (concentration inhibiting growth by 50%) (Staphylococcus aureus; Tryptose-soy broth): < 1.0 ppm | 100% by Weight Growth Inhibited (MIC) (Staphylococcus aureus; Tryptose-soy broth): 5-10 ppm | 50% by Weight Growth Inhibited (concentration inhibiting growth by 50%) (Klebsiella pneumoniae; [6]): 2.1 ± 0.3 ppm | 100% by Weight Growth Inhibited (MIC) (Klebsiella pneumoniae; [6]): 10-20 ppm | effectiveness against K. pneumoniae (Klebsiella pneumoniae; broth): especially effective | effectiveness against microorganisms which cause bovine mastitis [1]: effective | 50% by Weight Growth Inhibited (concentration inhibiting growth by 50%) (Pseudomonas aeruginosa; Tryptose-soy broth): 9.6 ± 6.4 ppm | 100% by Weight Growth Inhibited (MIC) (Pseudomonas aeruginosa; Tryptose-soy broth): 80-100 ppm | MIC at 95% Inhibition of Growth (S. aureus): 10 ppm | MIC at 100% Inhibition of Growth (S. aureus): 100 ppm | MIC at 95% Inhibition of Growth (E. coli): 10 ppm | MIC at 100% Inhibition of Growth (E. coli): 100 ppm | LD50 (rats): 200 mg/kg | change in CMT scores [3]: very slight rise | effect on CMT scores [3]: no effect | effect on other physical observations [3]: no effect | firmness of the udder to palpation [3]: increased firmness of the udder to palpation | irritation caused to the udder [3]: low irritation | 50% by Weight Growth Inhibited (concentration inhibiting growth by 50%) (Yeast Group; Tryptose-soy broth): < 1.0 ppm | 100% by Weight Growth Inhibited (MIC) (Yeast Group; Tryptose-soy broth): 3-6 ppm | CMT scores, overall [4]: increased CTM scores | CMT values at 504 hours after the first dose [4]: Normal values | adverse effects on cow's udder [4]: some adverse effects on cow's udder | change in CMT scores [4]: increase | flakes and clots in milk [4]: produced flakes and clots in milk | milk output [4]: depressed milk output | milk production [4]: reduced more dramatically than the 1% infusion | overall effects compared with 1% infusion [4]: in general similar to 1% infusion except with increased severity | systemic effects [4]: no systemic effects were noted | warmth of the udder [4]: felt warm
